Test results: US20050245563A1 (Millennium Pharmaceuticals, Inc., priority 2003, published 2005)
Structures can show the parent of a compound that is named as a salt.

Biological target: T1, human Chk1 (GST-Chk1) (Homo sapiens, UniProt O14757)
T1 construct: made in house; host or cells: insect cells (baculovirus, Bac-to-Bac)
T1 sequence (O14757 1-476): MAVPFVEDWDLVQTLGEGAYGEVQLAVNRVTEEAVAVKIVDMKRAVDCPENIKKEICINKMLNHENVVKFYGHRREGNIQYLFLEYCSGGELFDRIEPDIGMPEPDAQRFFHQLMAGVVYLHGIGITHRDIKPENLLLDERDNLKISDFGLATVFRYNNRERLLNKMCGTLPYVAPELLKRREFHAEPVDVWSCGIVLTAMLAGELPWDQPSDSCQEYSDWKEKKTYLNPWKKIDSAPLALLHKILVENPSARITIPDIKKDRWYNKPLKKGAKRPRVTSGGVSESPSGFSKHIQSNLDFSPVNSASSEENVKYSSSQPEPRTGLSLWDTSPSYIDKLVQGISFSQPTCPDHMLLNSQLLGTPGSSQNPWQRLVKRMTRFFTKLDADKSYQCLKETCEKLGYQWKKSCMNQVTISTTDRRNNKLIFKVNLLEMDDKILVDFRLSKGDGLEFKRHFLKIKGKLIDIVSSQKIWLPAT
Experiment: Chk1 DELFIA kinase assay (2 nM GST-Chk1, 600 μM ATP)
Type: biochemical
Settings: Biotin-GLYRSPSMPEN-amide substrate
Description: Recombinant human Chk1 was expressed as a fusion protein with glutathione S-transferase at the amino-terminus (GST-Chk1) using standard baculovirus vectors and (Bac-to-Bac®) insect cell expression system purchased from GIBCO™ Invitrogen. Recombinant protein expressed in insect cells was purified using glutathione sepharose (Amersham Biotech) using standard procedures described by the manufacturer.
Chk1 DELFIA® Kinase Assay:
Assays (25 μL) utilized 2 nM GST-Chk1 containing 10 mM Tris, pH 7.5, 20% glycerol, 50 mM sodium chloride (NaCl), 0.01% Surfact-Amps® 20, 1 μM peptide stubstrate (Biotin-GLYRSPSMPEN-amide) (SEQ ID NO: 3), 01.% BSA, 2 mM DTT, 4% DMSO, 600 μM ATP, 10 MM MgCl2 and reacted for 50 minutes at room temperature. Reactions were terminated with 100 μL of Stop buffer containing 1% BSA, 10 mM Tris, pH 8.0, 150 mM NaCl, 100 mM EDTA. Stopped reactions (100 μL) were transferred to 96 well NeutrAvidin plates (Pierce) to capture the biotin-peptide substrate during a 30 minute room temperature incubation. Wells were washed and reacted with 100 μL PerkinElmer Wallac Assay Buffer containing 21.5 ng/ml anti-phospho-Ser216-Cdc25c rabbit polyclonal antibody from Cell Signaling Technology (Beverly, Mass.) and 292 ng/ml europium labeled anti-rabbit-IgG for 1 hour at room temperature. Wells were washed and europium released from the bound antibody by addition of Enhancement Solution (100 μL) (PerkinElmer Wallac) and detected using a Perkin Elmer Wallac Envison™ 2100 multilabel reader using standard manufacturer settings.

| IC50 [nM] | Compound |
| --- | --- |
| < 1000 | Cc1[nH]nc2c1c(=O)n(CCCN)c1ccc(-c3ccoc3)cc21 [Example 309, 5-(3-Amino-propyl)-8-furan-3-yl-3-methyl-2,5-dihydro-pyrazolo[4,3-c]quinolin-4-one] |
| < 1000 | C#Cc1ccc2c(c1)c1n[nH]c(C)c1c(=O)n2CCCN [Example 291, 5-(3-Amino-propyl)-8-ethynyl-3-methyl-2,5-dihydro-pyrazolo[4,3-c]quinolin-4-one] |
| < 1000 | CCc1[nH]nc2c1c(=O)n(CCCN)c1ccc(Cl)cc21 [Example 311, 5-(3-Amino-propyl)-8-chloro-3-ethyl-2,5-dihydro-pyrazolo[4,3-c]quinolin-4-one hydrochloride] |
| < 1000 | CC#Cc1ccc2c(c1)c1n[nH]c(C)c1c(=O)n2CCCN [Example 283, 5-(3-Amino-propyl)-3-methyl 8-prop-1-ynyl-2,5-dihydro-pyrazolo[4,3-c]quinolin-4-one] |
| < 1000 | Cc1[nH]nc2c1c(=O)n(CCCN)c1cc(C#CCN3CCCC3)ccc21 [Example 340, 5-(3-Amino-propyl)-3-methyl-7-(3-pyrrolidin-1-yl-prop-1-ynyl)-2,5-dihydro-pyrazolo [4,3-c]quinolin-4-one] |
| < 1000 | Cc1[nH]nc2c1c(=O)n(CCCN)c1ccc(N3CCCC3)cc21 [Example 310, 5-(3-Amino-propyl)-3-methyl-8-pyrrolidin-1-yl-2,5-dihydro-pyrazolo[4,3-c]quinolin-4-one] |
| < 1000 | Cc1[nH]nc2c1c(=O)n(CCCN)c1cc(C(=O)NCCCN(C)C)ccc21 [Example 337] |
| < 1000 | Cc1[nH]nc2c1c(=O)n(CCCN)c1ccc(CCCN3CCCC3)cc21 [Example 297, 5-(3-Amino-propyl)-3-methyl-8-(3-pyrrolidin-1-yl-propyl)-2,5-dihydro-pyrazolo[4,3-c]quinolin-4-one] |
| < 1000 | C#Cc1ccc2c(c1)c1n[nH]c(CCOC)c1c(=O)n2CCCN [Example 292, 5-(3-Amino-propyl)-8-ethynyl-3-(2-methoxy-ethyl)-2,5-dihydro-pyrazolo[4,3-c]quinolin-4-one] |
| < 1000 | Cc1[nH]nc2c1c(=O)n(CCCN)c1cc(C(=O)NCCN3CCCC3)ccc21 [Example 336, 5-(3-Amino-propyl)-3-methyl-4-oxo-4,5-dihydro-2H-pyrazolo[4,3-c]quinolin-7-carboxylic acid (2-pyrrolidin-1-yl-ethyl)-amide] |
| < 1000 | Cc1[nH]nc2c1c(=O)n(CC(=O)C1CCCN1)c1ccc(Cl)cc21 (stereo not shown) [Example 230, 8-Chloro-3-methyl-5-(2-oxo-2-pyrrolidin-2-yl-ethyl)-2,5-dihydro-pyrazolo[4,3-c]quinolin-4-one] |
| < 1000 | NCCCn1c(=O)c2c(CCO)[nH]nc2c2cc(C#CCN3CCCC3)ccc21 [Example 328, 5-(3-Amino-propyl)-3-(2-hydroxy-ethyl)-8-(3-pyrrolidin-1-yl-prop-1-ynyl)-2,5-dihydro-pyrazolo [4,3-c]quinolin-4-one] |
| < 1000 | Cc1[nH]nc2c1c(=O)n(CCCN)c1ccc(C#Cc3cccnc3)cc21 [Example 277] |
| < 1000 | CCc1[nH]nc2c1c(=O)n(CCCNC)c1ccc(Cl)cc21 [Example 331, 8-Chloro-3-ethyl-5-(3-methylamino-propyl)-2,5-dihydro-pyrazolo[4,3-c]quinolin4-one] |
| < 1000 | Cc1[nH]nc2c1c(=O)n(CCCN)c1ccc(CCc3ccccn3)cc21 [Example 299, 5-(3-Amino-propyl)-3-methyl-8-(2-pyridin-2-yl-thyl)-2,5-dihydro-pyrazolo[4,3-c]quinolin-4-one] |
| < 1000 | CCCNCC(O)CCn1c(=O)c2c(C)[nH]nc2c2cc(Cl)ccc21 (stereo not shown) [Example 250, 8-Chloro-5-(3-hydroxy-4-propylamino-butyl)-3-methyl-2,5-dihydro-pyrazolo[4,3-c]quinolin-4-one] |
| < 1000 | Cc1[nH]nc2c1c(=O)n(CCCN)c1ccc(OCc3ccccc3)cc21 [Example 257, 5-(3-Amino-propyl)-8-benzyloxy-3-methyl-2,5-dihydro-pyrazolo[4,3-c]quinolin-4-one] |

| IC50 [nM] | Compound |
| --- | --- |
| < 1000 | Cc1[nH]nc2c1c(=O)n(CCCN)c1ccc(C#CCOc3ccccc3)cc21 [Example 280, 5-(3-Amino-propyl)-3-methyl-8-(3-phenoxy-prop-1-ynyl)-2,5-dihydro-pyrazolo[4,3-c]quinolin-4-one] |
| < 1000 | Cc1[nH]nc2c1c(=O)n(C[C@H](C)CN)c1ccc(Cl)cc21 [Example 221, 5-(3-Amino-2R-methyl-propyl)-8-chloro-3-methyl-2,5-dihydro-pyrazolo[4,3-c]quinolin-4-one] |
| < 1000 | Cc1[nH]nc2c1c(=O)n(CCCNC(=O)c1ccc(Cl)cc1)c1ccc(C#CCN3CCCC3)cc21 [Example 332, 4-Chloro-N-{3-[3-methyl-4-oxo-8-(3-pyrrolidin-1-yl-prop-1-ynyl)-2,4-dihydro-pyrazolo[4,3-c]quinolin-5-yl]-propyl}-benzamide] |
| < 1000 | Cc1[nH]nc2c1c(=O)n(CCCNC(=N)N)c1ccc(Cl)cc21 [Compound 253, N-[3-(8-Chloro-3-methyl-4-oxo-2,4-dihydro-pyrazolo[4,3-c]quinolin-5-yl)-propyl]-guanidine] |
| < 1000 | CCc1ccc2c(c1)c1n[nH]c(C)c1c(=O)n2CCCN [Example 294, 5-(3-Amino-propyl)-8-ethyl-3-methyl-2,5-dihydro-pyrazolo[4,3-c]quinolin4-one] |
| < 1000 | Cc1[nH]nc2c1c(=O)n(CCCN)c1ccc(C#CCN(C)C)cc21 [Example 284, 5-(3-Amino-propyl)-8-(3-dimethylamino-prop-1-ynyl]-3-methyl 2,5-dihydro-pyrazolo[4,3-c]quinolin-4-one] |
| < 1000 | COCCc1[nH]nc2c1c(=O)n(C[C@@H](C)CN)c1ccc(Cl)cc21 [Example 222, 5-(3-Amino-2S-methyl-propyl)-8-chloro-3-(2-methoxy-ethyl)-2,5-dihydro-pyrazolo[4,3-c]quinolin-4-one] |
| < 1000 | Cc1[nH]nc2c1c(=O)n(CCC(C)(C)N)c1ccc(Cl)cc21 [Example 229, 5-(3-Amino-3-methyl-butyl)-8-chloro-3-methyl-2,5-dihydro-pyrazolo[4,3-c]quinolin-4-one] |
| < 1000 | CCc1[nH]nc2c1c(=O)n(CCCN)c1ccc(CCCN3CCCC3)cc21 [Example 330, 5-(3-Amino-propyl)-3-ethyl-8-(3-pyrrolidin-1-yl-propyl)-2,5-dihydro-pyrazolo[4,3-c]quinolin-4-one] |
| < 1000 | CCN(CC)CCC(=O)Nc1ccc2c(c1)c1n[nH]c(C)c1c(=O)n2CCCN [Example 368, N-[5-(3-Amino-propyl)-3-methyl-4-oxo-4,5-dihydro-2H-pyrazolo[4,3-c]quinolin-8-yl]-3-diethylamino-propionamide] |
| < 1000 | NCCCn1c(=O)c2c(CCOCc3ccccc3)[nH]nc2c2cc(Cl)ccc21 [Example 362, 5-(3-Amino-propyl)-3-(2-benzyloxy-ethyl)-8-chloro-2,5-dihydro-pyrazolo[4,3-c]quinolin-4-one] |
| < 1000 | CNCCCn1c(=O)c2c(C)[nH]nc2c2cc(I)ccc21 [Example 234, 8-Iodo-3-methyl-5-(3-methylamino-propyl)-2,5-dihydro-pyrazolo[4,3-c]quinolin-4-one] |
| < 1000 | COCCc1[nH]nc2c1c(=O)n(C[C@H](C)CN)c1ccc(Cl)cc21 [Example 223, 5-(3-Amino-2R-methyl-propyl)-8-chloro-3-(2-methoxy-ethyl)-2,5-dihydro-pyrazolo[4,3-c]quinolin-4-one] |
| < 1000 | CCNCC(O)CCn1c(=O)c2c(C)[nH]nc2c2cc(Cl)ccc21 (stereo not shown) [Example 248, 8-Chloro-5-(4-ethylamino-3-hydroxy-butyl)-3-methyl-2,5-dihydro-pyrazolo[4,3-c]quinolin-4-one] |
| 1000 to 10000 | Cc1[nH]nc2c1c(=O)n(CCCN)c1ccc(CCC(=O)O)cc21 [Compound 269, 3-[5-(3-Aminopropyl)-3-methyl-4-oxo-4,5-dihydro-2H-pyrazolo[4,3-c]quinolin-8-yl]-propionic acid] |
| < 1000 | Cc1[nH]nc2c1c(=O)n(C)c1c(CCCO)cc(Cl)cc21 [Example 367, 8-Chloro-6-(3-hydroxy-propyl)-3,5-dimethyl-2,5-dihydro-pyrazolo[4,3-c]quinolin-4-one] |

| Compound | IC50 [nM] |
| --- | --- |
| CCCCOCCc1[nH]nc2c1c(=O)n(CCCN)c1ccc(Cl)cc21 [Example 322, 5-(3-Amino-propyl)-3-(2-butoxy-ethyl)-8-chloro-2,5-dihydro-pyrazolo[4,3-c]quinolin-4-one] | < 1000 |
